Data taken from patent publication US11814367B2, “Inhibitors of glycogen synthase 1 (GYS1) and methods of use thereof” (Maze Therapeutics, Inc., priority 2021, dated 2023).

What was measured:
[1] = molecular target: hGYS1 enzyme (recombinant hGYS1/GN1 protein) (Homo sapiens (Human), UniProt P13807); test: GYS1 coupled enzyme assay (PK/LDH); assay type: biochemical; conditions: hGYS1/GN1 50 nM, UDP-Glucose 0.8 mM, G6P 1 mM; geometric mean of at least 2 runs
[2] = test system: hGYS1 enzyme / glycogen synthesis in HeLa cells; test: GYS1 cell based assay (glycogen synthesis, Glucose-glo); design: species or system human; conditions: Homo sapiens, HeLa, 24 h, 24 h incubation, 20 mM glucose, geometric mean of at least 2 runs
Method in brief: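 HeLa cells starved 24 h in medium containing only 1× Glutamax were plated onto compound in medium with 20 mM glucose (1% DMSO final) for 24 h, 37 °C, 5% CO2. Acid lysates were Tris-quenched, glucoamylase-digested (pH 5.3, 1 h, 37 °C) and read by Glucose-glo luminescence. IC50 came from Hill fits, as geometric mean of ≥2 runs.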

hGYS1 enzyme (recombinant hGYS1/GN1 protein), sequence (P13807 whole entry): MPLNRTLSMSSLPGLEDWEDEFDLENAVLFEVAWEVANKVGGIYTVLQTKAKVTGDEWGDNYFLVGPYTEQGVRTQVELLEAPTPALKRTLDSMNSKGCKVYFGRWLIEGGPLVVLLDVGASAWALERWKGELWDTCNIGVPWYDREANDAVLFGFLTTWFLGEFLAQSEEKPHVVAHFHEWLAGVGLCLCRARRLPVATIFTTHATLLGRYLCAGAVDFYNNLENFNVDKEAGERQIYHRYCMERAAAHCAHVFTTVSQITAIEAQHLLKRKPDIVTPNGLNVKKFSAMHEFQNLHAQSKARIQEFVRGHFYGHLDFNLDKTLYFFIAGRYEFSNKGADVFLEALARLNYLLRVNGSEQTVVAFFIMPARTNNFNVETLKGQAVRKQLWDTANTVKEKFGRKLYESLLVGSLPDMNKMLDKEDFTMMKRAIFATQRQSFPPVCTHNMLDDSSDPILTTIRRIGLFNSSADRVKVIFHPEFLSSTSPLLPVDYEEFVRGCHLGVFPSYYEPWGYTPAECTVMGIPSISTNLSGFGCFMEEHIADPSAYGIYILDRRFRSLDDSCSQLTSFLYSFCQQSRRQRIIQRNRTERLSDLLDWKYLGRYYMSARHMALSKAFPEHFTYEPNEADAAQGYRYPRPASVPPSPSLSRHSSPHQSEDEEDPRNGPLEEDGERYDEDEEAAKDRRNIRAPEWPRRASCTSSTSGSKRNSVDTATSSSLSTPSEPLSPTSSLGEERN
hGYS1 enzyme (recombinant hGYS1/GN1 protein), sequence (P46976 whole entry partner): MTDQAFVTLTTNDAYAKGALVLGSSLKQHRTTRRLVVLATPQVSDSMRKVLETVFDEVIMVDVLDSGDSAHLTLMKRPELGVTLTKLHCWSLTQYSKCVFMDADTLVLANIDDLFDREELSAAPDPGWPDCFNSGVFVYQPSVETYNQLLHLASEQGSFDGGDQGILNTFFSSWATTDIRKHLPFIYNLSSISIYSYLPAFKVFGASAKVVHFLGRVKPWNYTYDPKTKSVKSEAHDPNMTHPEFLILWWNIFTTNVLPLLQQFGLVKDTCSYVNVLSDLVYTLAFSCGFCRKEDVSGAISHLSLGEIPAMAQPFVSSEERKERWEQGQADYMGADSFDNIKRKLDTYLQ

IC50 [1]	IC50 [2]	SMILES
0.012 µM	0.91 µM	O=C(N[C@@H](c1ccccc1)c1ccc(C2CC(F)(F)C2)c(F)n1)[C@@H]1C[C@@H](F)CN1C(=O)Cc1c[nH]c(=O)cn1 [Compound 530, (2S,4R)-N-[(S)-[5-(3,3-difluorocyclobutyl)-6-fluoropyridin-2-yl](phenyl)methyl]-4-fluoro-l-[2-(5-oxo-4,5-dihydropyrazin-2-yl)acetyl]pyrrolidine-2-carboxamide]
0.008 µM	0.06 µM	CCn1ccnc(CC(=O)N2C[C@H](F)C[C@H]2C(=O)N[C@@H](c2ccccc2)c2ccc(C3CC(F)(F)C3)c(F)n2)c1=O [Compound 531, (2S,4R)-N-[(S)-[5-(3,3-difluorocyclobutyl)-6-fluoropyridin-2-yl](phenyl)methyl]-1-[2-(4-ethyl-3-oxo-3,4-dihydropyrazin-2-yl)acetyl]-4-fluoropyrrolidine-2-carboxamide]
0.049 µM	0.61 µM	O=C(N[C@@H](c1ccccc1)c1ccc(C2CC(F)(F)C2)cn1)[C@@H]1C[C@@H](F)CN1C(=O)Cc1nc(C(F)(F)F)co1 [Compound 543, (2S,4R)-N-[(S)-[5-(3,3-difluorocyclobutyl)pyridin-2-yl](phenyl)methyl]-4-fluoro-1-{2-[4-(trifluoromethyl)-1,3-oxazol-2-yl]acetyl}pyrrolidine-2-carboxamide]
1.68 µM	> 30 µM	O=C(N[C@H](c1ccccc1)c1ccc(C2CC(F)(F)C2)c(F)c1)[C@@H]1C[C@@H](F)CN1C(=O)CNC(=O)N1CCC1 [Compound 545, (2S,4R)-1-((azetidine-1-carbonyl)glycyl)-N—((R)-(4-(3,3-difluorocyclobutyl)-3-fluorophenyl)(phenyl)methyl)-4-fluoropyrrolidine-2-carboxamide]
0.097 µM	0.66 µM	O=C(N[C@@H](c1ccccc1)c1ccc(C2CC(F)(F)C2)c(F)c1)[C@@H]1C[C@@H](F)CN1C(=O)Cc1nc(C(F)(F)F)co1 [Compound 555, (2S,4R)-N-[(S)-[4-(3,3-difluorocyclobutyl)-3-fluorophenyl](phenyl)methyl]-4-fluoro-1-{2-[4-(trifluoromethyl)-1,3-oxazol-2-yl]acetyl}pyrrolidine-2-carboxamide]
0.424 µM	5.78 µM	Cc1cn(CC(=O)N2C[C@H](F)C[C@H]2C(=O)N[C@H](c2ccccc2)c2ccc(C3(C)CC3)c(F)c2)c(=O)[nH]c1=O [Compound 557, (2S,4R)-4-fluoro-N—((R)-(3-fluoro-4-(1-methylcyclopropyl)phenyl)(phenyl)methyl)-1-(2-(5-methyl-2,4-dioxo-3,4-dihydropyrimidin-1(2H)-yl)acetyl)pyrrolidine-2-carboxamide]
1.58 µM	> 22.1 µM	CC1(c2ccc([C@@H](NC(=O)[C@@H]3C[C@@H](F)CN3C(=O)Cc3cnn[nH]3)c3cccnc3)cc2F)CC1 [Compound 559, (2S,4R)-4-fluoro-N-[(R)-[3-fluoro-4-(1-methylcyclopropyl)phenyl](pyridin-3-yl)methyl]-1-[2-(1H-1,2,3-triazol-5-yl)acetyl]pyrrolidine-2-carboxamide]
0.153 µM	2.18 µM	CC1(c2ccc([C@@H](NC(=O)[C@@H]3C[C@@H](F)CN3C(=O)Cc3cc4ccccc4[nH]3)c3ccccc3)nc2F)CC1 [Compound 598, (2S,4R)-4-fluoro-N-[(S)-[6-fluoro-5-(1-methylcyclopropyl)pyridin-2-yl](phenyl)methyl]-1-[2-(1H-indol-2-yl)acetyl]pyrrolidine-2-carboxamide]
0.034 µM	0.71 µM	CC(C)(C)OC(=O)n1c(CC(=O)N2C[C@H](F)C[C@H]2C(=O)N[C@@H](c2ccccc2)c2ccc(C3(C)CC3)c(F)n2)cc2ccccc21 [Compound 601, tert-butyl 2-{2-[(2S,4R)-4-fluoro-2-{[(S)-[6-fluoro-5-(1-methylcyclopropyl)pyridin-2-yl](phenyl)methyl]carbamoyl}pyrrolidin-1-yl]-2-oxoethyl}-1H-indole-1-carboxylate]

The next lines start with the compound.

SMILES	IC50 [1]	IC50 [2]
O=C(N[C@@H](c1ccccc1)c1ccc(C2CC2)c(F)c1)[C@@H]1C[C@@H](F)CN1C(=O)Cc1cc2ccccc2[nH]1 [Compound 460, (2S,4R)-N-[(S)-(4-cyclopropyl-3-fluorophenyl)(phenyl)methyl]-4-fluoro-1-[2-(1H-indol-2-yl)acetyl] pyrrolidine-2-carboxamide]	0.187 µM	2.42 µM
CC(C)(C)OC(=O)n1c(CC(=O)N2C[C@H](F)C[C@H]2C(=O)N[C@@H](c2ccccc2)c2ccc(C3CC3)c(F)c2)cc2ccccc21 [Compound 461, tert-butyl 2-{2-[(2S,4R)-2-{[(S)-(4-cyclopropyl-3-fluorophenyl)(phenyl)methyl]carbamoyl}-4-fluoropyrrolidin-1-yl]-2-oxoethyl}-1H-indole-1-carboxylate]	0.026 µM	0.57 µM
CCn1cc(N(C)CC(=O)N2C[C@H](F)C[C@H]2C(=O)N[C@@H](c2ccccc2)c2ccc(C3CC3)c(F)c2)nn1 [Compound 473, (2S,4R)-N-[(S)-(4-cyclopropyl-3-fluorophenyl)(phenyl)methyl]-1-{2-[(1-ethyl-1H-1,2,3-triazol-4-yl)(methyl)amino]acetyl}-4-fluoropyrrolidine-2-carboxamide]	0.1 µM	1.77 µM
O=C(N[C@@H](c1ccccc1)c1ccc(C2CC2)c(F)c1)[C@@H]1C[C@@H](F)CN1C(=O)CCc1n[nH]c(=O)[nH]1 [Compound 493, (2S,4R)-N-[(S)-(4-cyclopropyl-3-fluorophenyl)(phenyl)methyl]-4-fluoro-1-[3-(5-oxo-4,5-dihydro-1H-1,2,4-triazol-3-yl)propanoyl]pyrrolidine-2-carboxamide]	0.103 µM	15.8 µM
Cn1c(CC(=O)N2C[C@H](F)C[C@H]2C(=O)N[C@@H](c2ccccc2)c2ccc(C3CC3)c(F)c2)noc1=O [Compound 494, (2S,4R)-N-[(S)-(4-cyclopropyl-3-fluorophenyl)(phenyl)methyl]-4-fluoro-1-[2-(4-methyl-5-oxo-4,5-dihydro-1,2,4-oxadiazol-3-yl)acetyl]pyrrolidine-2-carboxamide]	0.661 µM	12.4 µM
O=C(N[C@H](c1ccccc1)c1ccc(C2CC(F)(F)C2)c(F)n1)[C@@H]1C[C@@H](F)CN1C(=O)Cc1ccc[nH]c1=O [Compound 521, (2S,4R)-N-[(R)-[5-(3,3-difluorocyclobutyl)-6-fluoropyridin-2-yl](phenyl)methyl]-4-fluoro-1-[2-(2-oxo-1,2-dihydropyridin-3-yl)acetyl]pyrrolidine-2-carboxamide]	2.61 µM	> 30 µM
CCn1cc(CC(=O)N2C[C@H](F)C[C@H]2C(=O)N[C@@H](c2ccccc2)c2ccc(C3CC(F)(F)C3)c(F)n2)cc(C)c1=O [Compound 523, (2S,4R)-N-[(S)-[5-(3,3-difluorocyclobutyl)-6-fluoropyridin-2-yl](phenyl)methyl]-1-[2-(1-ethyl-5-methyl-6-oxo-1,6-dihydropyridin-3-yl)acetyl]-4-fluoropyrrolidine-2-carboxamide]	0.005 µM	0.08 µM
CCOc1ncc(CC(=O)N2C[C@H](F)C[C@H]2C(=O)N[C@@H](c2ccccc2)c2ccc(C3CC(F)(F)C3)c(F)n2)cc1C [Compound 524, (2S,4R)-N-[(S)-[5-(3,3-difluorocyclobutyl)-6-fluoropyridin-2-yl](phenyl)methyl]-1-[2-(6-ethoxy-5-methylpyridin-3-yl)acetyl]-4-fluoropyrrolidine-2-carboxamide]	0.006 µM	0.19 µM
CCn1cc(C)cc(CC(=O)N2C[C@H](F)C[C@H]2C(=O)N[C@@H](c2ccccc2)c2ccc(C3CC(F)(F)C3)c(F)n2)c1=O [Compound 525, (2S,4R)-N-[(S)-[5-(3,3-difluorocyclobutyl)-6-fluoropyridin-2-yl](phenyl)methyl]-1-[2-(1-ethyl-5-methyl-2-oxo-1,2-dihydropyrdin-3-yl)acetyl]-4-fluoropyrrolidine-2-carboxamide]	0.004 µM	0.05 µM
CCn1cccc(CC(=O)N2C[C@H](F)C[C@H]2C(=O)N[C@@H](c2ccccc2)c2ccc(C3CC(F)(F)C3)c(F)n2)c1=O [Compound 526, (2S,4R)-N-[(S)-[5-(3,3-difluorocyclobutyl)-6-fluoropyridin-2-yl](phenyl)methyl]-1-[2-(1-ethyl-2-oxo-1,2-dihydropyridin-3-yl)acetyl]-4-fluoropyrrolidine-2-carboxamide]	0.011 µM	0.13 µM
CCn1cc(CC(=O)N2C[C@H](F)C[C@H]2C(=O)N[C@@H](c2ccccc2)c2ccc(C3CC(F)(F)C3)c(F)n2)ncc1=O [Compound 527, (2S,4R)-N-[(S)-[5-(3,3-difluorocyclobutyl)-6-fluoropyridin-2-yl](phenyl)methyl]-1-[2-(4-ethyl-5-oxo-4,5-dihydropyrazin-2-yl)acetyl]-4-fluoropyrrolidine-2-carboxamide]	0.007 µM	0.25 µM
O=C(N[C@@H](c1ccccc1)c1ccc(C2CC(F)(F)C2)c(F)n1)[C@@H]1C[C@@H](F)CN1C(=O)Cc1nc(C(F)(F)F)co1 [Compound 528, (2S,4R)-N-[(S)-[5-(3,3-difluorocyclobutyl)-6-fluoropyridin-2-yl](phenyl)methyl]-4-fluoro-1-{2-[4-(trifluoromethyl)-1,3-oxazol-2-yl]acetyl}pyrrolidine-2-carboxamide]	0.015 µM	0.33 µM
O=C(N[C@@H](c1ccccc1)c1ccc(C2CC(F)(F)C2)c(F)n1)[C@@H]1C[C@@H](F)CN1C(=O)Cc1ncc[nH]c1=O [Compound 529, (2S,4R)-N-[(S)-[5-(3,3-difluorocyclobutyl)-6-fluoropyridin-2-yl](phenyl)methyl]-4-fluoro-1-[2-(3-oxo-3,4-dihydropyrazin-2-yl)acetyl]pyrrolidine-2-carboxamide]	0.016 µM	1.04 µM
